From patent US10550144B2, “6-aryl-9-glycosylpurines and use thereof” (UNIVERZITA PALACKEHO V OLOMOUCI, priority 2014, dated 2020)

Legend:
[1] = tested on: Triticum aestivum cv. Hereward detached leaf segments; experiment: Senescence bioassay on detached wheat leaf segments (chlorophyll retention); format: in vivo; conditions: 96 h incubation in the dark at 25° C.; tested 10^−8 M to 10^−4 M
Protocol: Seeds of winter wheat, Triticum aestivum cv. Hereward, were washed under running water for 24 hours and then sown on vermiculite soaked with Knop's solution. They were placed in the growth chamber at 25° C. with a 16/8 h light period at 50 μmol·m^−2·s^−1. After 7 days, the first leaf was fully developed and the second leaf had started to grow. A tip section of the first leaf, approximately 35 mm long, was removed from 5 seedlings and trimmed slightly to a combined weight of 100 mg. The basal ends of the five leaf tips were placed in the wells of a microtiter polystyrene plate containing 150 μL of the tested derivative solution each. The entire plate was inserted into a plastic box lined with paper tissues soaked in distilled water to prevent leaf sections from drying out. After 96 h incubation in the dark at 25° C., the leaves were removed and chlorophyll extracted by heating at 80° C. for 10 min in 5 mL of 80% ethanol (v/v). The sample volume was then restored to 5 mL by the addition of 80% ethanol (v/v). The absorbance of the extract was recorded at 665 nm. In addition, chlorophyll extracts from fresh leaves and leaf tips incubated in deionised water were measured. The results are means of five replicates and the entire test was repeated twice. […] The compounds to be tested were dissolved in dimethylsulfoxide (DMSO) and the solution brought up to 10^−3M with distilled water. […] The activity obtained for 10^−4 M of BAP was postulated as 100%.

[2] = tested on: Arabidopsis wild-type plants (Col-0) detached leaves, gene transcription; experiment: Differential gene expression study (RNA sequencing) in detached senescent leaves; format: in vivo; conditions: 10 μM
Protocol: For isolation of total RNA, Arabidopsis wild-type plants (Col-0) were used, which were either treated with 3MeOBAPA or left untreated. Wild-type plants were grown in soil for 30 days, and then leaves of similar size and chlorophyll content were cut and immediately used for the treatment. At least 20 detached leaves were submerged in 1×MS medium supplemented with 10 μM 3MeOBAPA. Control samples were mock treated with DMSO only. After incubation for 6 h or 48 h in the dark, detached leaves were frozen in liquid nitrogen and used for RNA isolation; 150 mg of liquid nitrogen-ground material was used per isolation. cDNA sequencing libraries were prepared with the Illumina TruSeq Stranded mRNA LT Sample Prep Kit (Illumina, San Diego, Calif.) according to standard Illumina's protocols and sequenced on HiSeq 2500 apparatus (50 bp single-end reads).
To gain insight into the molecular mechanism of 3MeOBAPA action in Arabidopsis we decided to analyze the gene expression patterns via comparison of mock (DMSO)-treated plants with those obtained after i) short time treatment with 3MeOBAPA (6 h) and ii) long time treatment (48 h). This comparison leads to identification of group of genes with similar kinetic of expression and helps to understand possible mechanism of regulation. For data analysis, we performed ab initio method where sequencing reads were mapped to the reference genome.

Vaccinia virus = conditions: Masakatsu et al. 1977, cited from earlier work
Herpes simplex virus = conditions: Masakatsu et al. 1977; cited from earlier work
[3] = tested on: Dais cotinifolia shoot-tip explants; experiment: Shoot multiplication and shoot-tip necrosis in shoot cultures of Dais cotinifolia; format: in vivo; conditions: after 8 weeks of culture
Protocol: Explants were washed thoroughly with 0.1% (v/v) of Tween® 20 for 2 min, and decontaminated with 70% ethanol for 15 sec followed by 0.2% aqueous HgCl2 for 10 min. The explants were rinsed five times with sterile distilled water. […] Each value was presented as the mean±standard error, with three replicates; each replicate consisting of 15 explants per treatment.

[4] = tested on: Amelanchier alnifolia nodal explants; experiment: Micropropagation growth response with BAP, Amelanchier alnifolia; conditions: after 35 days in vitro, N = 9
[5] = tested on: Gymnosporia buxifolia shoot-tip explants; experiment: Shoot-tip necrosis in in vitro cultures of Gymnosporia buxifolia; conditions: after 4 weeks of culture
[6] = tested on: Harpagophytum procumbens nodal explants; experiment: Micropropagation growth response with BAP, Harpagophytum procumbens; conditions: after 35 days in vitro, N = 12

COc1cccc(CNc2ncnc3c2ncn3[C@@H]2O[C@H](CO)[C@@H](O)[C@@H]2O)c1 [6-(3-methoxybenzylamino)-9-β-D-arabinofuranosylpurine]
maximum effective concentration [1]: 10^−4 mol · l^−1
logFC AT1G10585 Basic helix-loop-helix (bHLH) DNA-binding superfamily protein ([2]; 6 h): 0.38
logFC AT1G15540 2-oxoglutarate and Fe(II)-dependent oxygenase superfamily protein ([2]; 6 h): 0.57
logFC AT1G19670 Chlorophyllase-1 (CLH1) ([2]; 6 h): 0.63
logFC AT1G59860 17.6 kDa class I heat shock protein 1 (HSP17.6A) ([2]; 6 h): 0.48
logFC AT1G76640 Calcium-binding EF-hand family protein (CML39) ([2]; 6 h): 0.78
logFC AT2G02010 Glutamate decarboxylase 4 (GAD4) ([2]; 6 h): 0.55
logFC AT2G18150 Peroxidase 15 (PER15) ([2]; 6 h): 0.68
logFC AT2G21900 WRKY transcription factor 59 (WRKY59) ([2]; 6 h): 0.54
logFC AT2G26695 Ran BP2/NZF zinc finger-like superfamily protein ([2]; 6 h): 0.50
logFC AT2G28210 Alpha carbonic anhydrase 2 (ATACA2) ([2]; 6 h): 0.85
logFC AT2G37430 Zinc finger protein ZAT11 ([2]; 6 h): 0.42
logFC AT2G39030 L-ornithine N5-acetyltransferase (NATA1) ([2]; 6 h): 0.56
logFC AT2G47040 Pectin methylesterase Vanguard1 (VGD1) ([2]; 6 h): 2.80
logFC AT3G05610 Pectinesterase/pectinesterase inhibitor 21 (PME21) ([2]; 6 h): 1.80
logFC AT3G09340 Transmembrane amino acid transporter family protein ([2]; 6 h): 0.55
logFC AT3G11340 UDP-Glycosyltransferase superfamily protein ([2]; 6 h): 0.51
logFC AT3G13400 SKU5 similar 13 (SKS13) ([2]; 6 h): 0.82
logFC AT3G28153 Transposable element gene ([2]; 6 h): 0.92
logFC AT3G28155 ARM repeat superfamily protein ([2]; 6 h): 0.59
logFC AT3G44830 Putative phospholipid:diacylglycerol acyltransferase 2 (PDAT2) ([2]; 6 h): 0.38
logFC AT4G01390 TRAF-like family protein ([2]; 6 h): 0.79
logFC AT4G21830 Peptide methionine sulfoxide reductase B7 (MSRB7) ([2]; 6 h): 0.55
logFC AT4G22030 F-box domain, cyclin-like, F-box domain, Skp2-like protein ([2]; 6 h): 0.41
logFC AT4G22620 SAUR-like auxin-responsive family protein ([2]; 6 h): 0.46
logFC AT4G24350 Phosphorylase superfamily protein ([2]; 6 h): 0.64
logFC AT4G26010 Peroxidase 44 (PER44) ([2]; 6 h): 0.53
logFC AT4G31950 Cytochrome P450 82C3 (CYP82C3) ([2]; 6 h): 0.37
logFC AT4G37780 Myb domain protein 87 (MYB87) ([2]; 6 h): 0.41
logFC AT4G39320 Microtubule-associated protein-related ([2]; 6 h): 0.45
logFC AT5G03610 GDSL esterase/lipase ([2]; 6 h): 0.42
logFC AT5G52670 Copper transport family protein ([2]; 6 h): 0.57
logFC AT5G62720 Integral membrane HPP family protein ([2]; 6 h): 0.44
logFC AT5G63270 RPM1-interacting protein 4 (RIN4) family protein ([2]; 6 h): 0.56
logFC AT2G26695 Ran BP2/NZF zinc finger-like superfamily protein ([2]; 48 h): 5.90
logFC AT3G11340 UDP-Glycosyltransferase superfamily protein ([2]; 48 h): 6.60
logFC AT3G28153 Transposable element gene ([2]; 48 h): 5.70
number of downregulated genes (P≤0.05) ([2]; long time treatment (48 h) vs mock (DMSO)): 7 095 genes

Cc1ccc(CNc2ncnc3c2ncn3[C@@H]2O[C@H](CO)[C@@H](O)[C@@H]2O)cc1C [3,4-dimethylbenzyl]
activity in killing Vaccinia virus (Vaccinia virus): No effect
activity in killing Herpes simplex virus (Herpes simplex virus): No effect

Cc1ccccc1CNc1ncnc2c1ncn2[C@@H]1O[C@H](CO)[C@@H](O)[C@@H]1O [2-methylbenzyl]
activity in killing Vaccinia virus (Vaccinia virus): No effect
activity in killing Herpes simplex virus (Herpes simplex virus): No effect

Cc1ccc(CNc2ncnc3c2ncn3C2OC(CO)C(O)C2O)c(C)c1 (centres unmarked) [2,4-dimethylbenzyl]
activity against Vaccinia virus, strain IHD (Vaccinia virus): low activity

OC[C@H]1O[C@@H](n2cnc3c(NCc4ccccc4)ncnc32)[C@@H](O)[C@@H]1O [6-benzylamino-9-β-D-arabinofuranosylpurine]
activity in killing Vaccinia virus (Vaccinia virus): No effect
activity in killing Herpes simplex virus (Herpes simplex virus): No effect

Cc1ccc(C)c(CNc2ncnc3c2ncn3C2OC(CO)C(O)C2O)c1 (centres unmarked) [2,5-dimethylbenzyl]
activity against Vaccinia virus, strain IHD (Vaccinia virus): low activity

Cc1cccc(C)c1CNc1ncnc2c1ncn2[C@@H]1O[C@H](CO)[C@@H](O)[C@@H]1O [2,6-dimethylbenzyl]
activity in killing Vaccinia virus (Vaccinia virus): No effect
activity in killing Herpes simplex virus (Herpes simplex virus): No effect

Cc1cccc(CNc2ncnc3c2ncn3[C@@H]2O[C@H](CO)[C@@H](O)[C@@H]2O)c1 [Example 3CH3BAPA, 6-(3-methylbenzylamino)-9-β-D-arabinofuranosylpurine]
Morphogenesis in vitro ([3]; 5 μM in MS medium): Green shoots
STN [%] (shoot-tip necrosis) ([3]; 5 μM in MS medium): 52.2 ± 0.89b %
Shoot length [cm] ([3]; 5 μM in MS medium): 1.42 ± 0.21bc cm
Shoots [explant^−1] […] ([3]; 5 μM in MS medium): 1.0 ± 0.00c explant^−1
Morphogenesis in vitro ([3]; 10 μM in MS medium): Green shoots
STN [%] (shoot-tip necrosis) ([3]; 10 μM in MS medium): 50.0 ± 0.75bc %
Shoot length [cm] ([3]; 10 μM in MS medium): 1.86 ± 0.14ab cm
Shoots [explant^−1] […] ([3]; 10 μM in MS medium): 1.0 ± 0.00c explant^−1
Morphogenesis in vitro ([3]; 20 μM in MS medium): Pale green shoots
STN [%] (shoot-tip necrosis) ([3]; 20 μM in MS medium): 45.5 ± 0.95d %
Shoot length [cm] ([3]; 20 μM in MS medium): 1.94 ± 0.09ab cm
Shoots [explant^−1] […] ([3]; 20 μM in MS medium): 1.8 ± 0.48bc explant^−1
Morphogenesis in vitro ([3]; 30 μM in MS medium): Pale green shoots
STN [%] (shoot-tip necrosis) ([3]; 30 μM in MS medium): 31.3 ± 1.12ef %
Shoot length [cm] ([3]; 30 μM in MS medium): 2.26 ± 0.22a cm
Shoots [explant^−1] […] ([3]; 30 μM in MS medium): 2.2 ± 0.32b explant^−1
activity in killing Vaccinia virus (Vaccinia virus): No effect
activity in killing Herpes simplex virus (Herpes simplex virus): No effect
Fresh weight (g) mean SE ([4]; 5 μM compound with 10 μM BAP): 0.249 ± 0.0594 g
Shoot length (mm) mean SE ([4]; 5 μM compound with 10 μM BAP): 14.11 ± 1.670 mm
Shoot no. mean SE ([4]; 5 μM compound with 10 μM BAP): 7.6 ± 2.10
Fresh weight (g) mean SE ([4]; 10 μM compound with 10 μM BAP): 0.349 ± 0.1025 g
Shoot length (mm) mean SE ([4]; 10 μM compound with 10 μM BAP): 18.89 ± 2.288 mm
Shoot no. mean SE ([4]; 10 μM compound with 10 μM BAP): 10.6 ± 2.75
Fresh weight (g) mean SE ([4]; 20 μM compound with 10 μM BAP): 0.563 ± 0.0729 g
Shoot length (mm) mean SE ([4]; 20 μM compound with 10 μM BAP): 16.22 ± 1.730 mm
Shoot no. mean SE ([4]; 20 μM compound with 10 μM BAP): 13.7 ± 2.06
Fresh weight (g) mean SE ([4]; 30 μM compound with 10 μM BAP): 0.335 ± 0.0877 g
Shoot length (mm) mean SE ([4]; 30 μM compound with 10 μM BAP): 18.33 ± 3.122 mm
Shoot no. mean SE ([4]; 30 μM compound with 10 μM BAP): 11.6 ± 2.99
STN [%] (shoot-tip necrosis) ([5]; 5 μM in MS medium): 53.3 ± 0.24d %
Shoot length [cm] ([5]; 5 μM in MS medium): 1.36 ± 0.27bc cm
Shoots [explant^−1] […] ([5]; 5 μM in MS medium): 1.0 ± 0.0a explant^−1
STN [%] (shoot-tip necrosis) ([5]; 10 μM in MS medium): 40.0 ± 0.20fg %
Shoot length [cm] ([5]; 10 μM in MS medium): 1.82 ± 0.17b cm
Shoots [explant^−1] […] ([5]; 10 μM in MS medium): 1.0 ± 0.0a explant^−1
STN [%] (shoot-tip necrosis) ([5]; 20 μM in MS medium): 22.6 ± 0.28hi %
Shoot length [cm] ([5]; 20 μM in MS medium): 3.30 ± 0.14a cm
Shoots [explant^−1] […] ([5]; 20 μM in MS medium): 1.0 ± 0.0a explant^−1
STN [%] (shoot-tip necrosis) ([5]; 30 μM in MS medium): 13.3 ± 0.24j %
Shoot length [cm] ([5]; 30 μM in MS medium): 3.00 ± 0.11a cm
Shoots [explant^−1] […] ([5]; 30 μM in MS medium): 1.0 ± 0.0a explant^−1
Fresh weight (g) mean SE ([6]; 5 μM compound with 10 μM BAP): 0.8607 ± 0.1884 g
Shoot length (mm) mean SE ([6]; 5 μM compound with 10 μM BAP): 28.6 ± 4.397 mm
Shoot no. mean SE ([6]; 5 μM compound with 10 μM BAP): 2.8 ± 0.573
Fresh weight (g) mean SE ([6]; 10 μM compound with 10 μM BAP): 1.0523 ± 0.2439 g
Shoot length (mm) mean SE ([6]; 10 μM compound with 10 μM BAP): 45.8 ± 7.094 mm
Shoot no. mean SE ([6]; 10 μM compound with 10 μM BAP): 2.6 ± 0.340
Fresh weight (g) mean SE ([6]; 20 μM compound with 10 μM BAP): 0.8456 ± 0.1339 g
Shoot length (mm) mean SE ([6]; 20 μM compound with 10 μM BAP): 27 ± 3.531 mm
Shoot no. mean SE ([6]; 20 μM compound with 10 μM BAP): 2.3 ± 0.423
Fresh weight (g) mean SE ([6]; 30 μM compound with 10 μM BAP): 1.1419 ± 0.213 g
Shoot length (mm) mean SE ([6]; 30 μM compound with 10 μM BAP): 40.6 ± 4.831 mm
Shoot no. mean SE ([6]; 30 μM compound with 10 μM BAP): 3.8 ± 0.593

Cc1cccc(CNc2ncnc3c2ncn3C2OC(CO)C(O)C2O)c1C (centres unmarked) [2,3-dimethylbenzyl]
activity in killing Vaccinia virus (Vaccinia virus): No effect
activity in killing Herpes simplex virus (Herpes simplex virus): No effect
